Where two headings read alike, the source gives them in different places.
Key:
[1] = cited from earlier work
[2] = tested on: diabetic patients with grade 2 and grade 3 ulcers (Wagner classification); type: in vivo, human
Procedure: In order to assess the effect of sildenafil maleate in treatment of diabetic foot ulcers, a 12-week open-label longitudinal study was conducted to compare the conventional treatment and the conventional treatment with simultaneous administration of sildenafil maleate.
Diabetic patients with grade 2 and grade 3 ulcers were selected, according to Wagner classification and complying with the following inclusion and exclusion criteria:
Inclusion Criteria: • Male or female patients with type-2 Diabetes Mellitus • Age younger than 80 years • Grade-2 or -3 foot or leg ulcer, of any origin according to Wagner classification, without compromising tendons nor bone, with a progression time not higher than 3 months. • Presence or absence of localized infection • Without peripheral vascular obstruction
Exclusion Criteria • Type-1 Diabetes Mellitus patients • Grade-4 foot or leg ulcer according to Wagner classification or foot or knuckle necrosis • Peripheral vascular obstruction (ankle/arm index lower than 0.3) • Patients with creatinine higher than 1.2 mg/dL or blood urea nitrogen (BUN) higher than 50 • Transaminases 2 times above baseline • Microalbuminuria higher than 100
Patients who meet inclusion and exclusion criteria, who voluntarily accept to participate in the study and further signing a written consent, are randomly assigned to two study groups:
Group I: Conventional treatment
Group II: Conventional treatment with simultaneous administration of sildenafil maleate.
Patients are required to perform wound treatment and to register lesion progression.
Visit 1 • Signature of written consent • Physical examination • Petition of clinical lab examinations: complete blood count, glycosilated hemoglobin (HbA1c), total colesterol, total lipids, triglycerides, HDL-colesterol, urea, creatinine, microalbumina, aspartate aminotransferase (TGO), alanine aminotransferase (TGP), reactive, ultra-sensitive C-protein (PCR-u), urine test, pre and postprandial glycemia, lesion culture when required. • Conventional healing of lesion • Arterial Doppler request of affected limb • Provide treatment with antibiotics when necessary
Visit 2 (1 to 3 Days after Visit 1) • Interpretation of lab examination and Doppler study • Clinical/physical lesion examination • Patient inclusion/exclusion decision into the study • Random assignment of study groups • Registration of lesion characteristics (lesion photographs) • Assessment of metabolic control
Visit 3 (1 to 3 Days after Visit 2) • Registration of lesion progression (lesion photographs) • Assessment of patient's metabolic control • Delivery of corresponding medicaments (antibiotics and sildenafil maleate as applicable) • Registration de adverse events
Visit 4 Until Week 12 of Study (2 to 3 Times Per Week) • Registration of lesion progression (lesion photographs) • Registration de adverse events • Assessment of metabolic control
Visit 5 (1 to 5 Days after Final Visit) • Registration of lesion progression (lesion photographs) • Registration of adverse events • Compliance with study medication intake • Education for future lesion prevention
Wound treatment applied to all patients during each visit consists of cleaning with […] and distilled water, using sterile material; ointment MEBO® (Moist exposed Burn Treatment) was locally applied and dressing with sterile gauze when needed.
Study medication was delivered in accordance with the previously established protocol; compliance with medication intake and presence of adverse events was verified. Medication was suspended in case of showing any adverse effect, even a mild event associated with study medicament (sildenafil maleate).

sildenafil maleate
absorption compared with sildenafil citrate ([1]; in vivo): faster absorption
bioequivalence with sildenafil citrate ([1]; in vivo): bioequivalent
plasma protein binding ([1]; in vivo): mostly bound to plasma proteins
delay of maximum peak ([1]; ingested during a high fat content meal): 60 min
time to maximum concentration ([1]; oral administration, fasting subjects): 60 min
distribution volume ([1]; stationary media (steady state)): 105 L
effect on macro and microcirculation, granulation and healing of ulcers ([2]; 10-mg daily dose, oral, diabetic foot patients): improvement in macro and microcirculation
recovery of patients with previous amputations ([2]; Group II patients who had previous amputations): total recovery
blood flow and health status of lower limbs after end of treatment ([2]; Group II patients whose treatment concluded before the 12 weeks): kept an improvement in blood flow
patients who obtained a satisfactory result (lesion healing) ([2]; Group II: conventional treatment with simultaneous sildenafil maleate): 100%
adverse events ([2]; in vivo): did not experience adverse events
side effects ([2]; in vivo, po): does not show side effects
lower healing time than group with conventional treatment ([2]; patients with grade 2 ulcers): 20 days
Average healing time (Group II) ([2]; ulcer grade 2 according to Wagner scale): 47 days
Average healing time (Group II) ([2]; ulcer grade 3 according to Wagner scale): 81 days
Average healing time (Group II) ([2]; ulcer grades 2 and 3 according to Wagner scale): 55 days
decrease of recovery time ([2]; vs conventional treatment, regardless of ulcer grade and lesion area): about 20 days
